We go through 17 molecules from PubChem BioAssay AID256 (DTP/NCI, 2004).

Where “and” joins values, the source holds several entries; their conditions need not be identical. Identical values can stand only once. Inconclusive results and toxic doses are left out.

The test system of this experiment is CD2F1 mice, L1210 leukemia ip, survival T/C. The experiment can be described thus: NCI In Vivo Anticancer Drug Screen. Data for tumor model L1210 Leukemia (intraperitoneal) in CD2F1 (CDF1) mice. The following applies: higher = longer survival. The gist of the method: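 Vehicle-treated tumor-bearing mice served as controls (C) for compound-treated mice (T). Reported figure is T divided by C.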

The mark [1] stands for this setting: endpoint: mean survival time, dose: 100.0 mg/kg/injection, schedule: Q04DX002 (ip), vehicle: saline with Tween-80.
Where [2] appears, read: endpoint: mean survival time, dose: 200.0 mg/kg/injection, schedule: Q04DX002 (ip), vehicle: saline with Tween-80.
Setting [3] is: endpoint: mean survival time, dose: 100.0 mg/kg/injection, schedule: Q04DX003 (ip), vehicle: saline with Tween-80.
The mark [4] stands for this setting: endpoint: mean survival time, dose: 200.0 mg/kg/injection, schedule: Q04DX003 (ip), vehicle: saline with Tween-80.
[5] abbreviates: endpoint: mean survival time, dose: 400.0 mg/kg/injection, schedule: Q04DX003 (ip), vehicle: saline with Tween-80.
The mark [6] stands for this setting: endpoint: mean survival time, dose: 100.0 mg/kg/injection, schedule: Q01DX009 (ip), vehicle: saline with Tween-80.
The mark [7] stands for this setting: endpoint: mean survival time, dose: 200.0 mg/kg/injection, schedule: Q01DX001 (ip), vehicle: saline with Tween-80.
Where [8] appears, read: endpoint: mean survival time, dose: 400.0 mg/kg/injection, schedule: Q01DX001 (ip), vehicle: saline with Tween-80.
[9] abbreviates: endpoint: mean survival time, dose: 25.0 mg/kg/injection, schedule: Q04DX002 (ip), vehicle: saline with Tween-80.
[10] abbreviates: endpoint: mean survival time, dose: 50.0 mg/kg/injection, schedule: Q04DX002 (ip), vehicle: saline with Tween-80.
The mark [11] stands for this setting: endpoint: mean survival time, dose: 200.0 mg/kg/injection, schedule: Q01DX009 (ip), vehicle: saline with Tween-80.
Where [12] appears, read: endpoint: mean survival time, dose: 400.0 mg/kg/injection, schedule: Q01DX009 (ip), vehicle: saline with Tween-80.

On to `Cc1ccc(C)c(OC(=O)Nc2cccc3ccccc23)c1`, for which the T/C reads like this: under setting [1], 91 % of control; under setting [2], 91 % of control; (endpoint: mean survival time, dose: 400.0 mg/kg/injection, schedule: Q04DX002 (ip), vehicle: saline with Tween-80) 91 % of control.

Regarding `CO[C@@]12[C@@H]3N[C@@H]3CN1C1=C(C(=O)C(NCC3CCCO3)=C(C)C1=O)[C@@H]2COC(N)=O` (stereo partly drawn), the T/C was 111 % of control (endpoint: mean survival time, dose: 1.5 mg/kg/injection, schedule: Q01DX001 (ip), vehicle: distilled water + Tween-80); 114 % of control and 116 % of control (endpoint: mean survival time, dose: 3.0 mg/kg/injection, schedule: Q01DX001 (ip), vehicle: distilled water + Tween-80); 121 % of control (endpoint: mean survival time, dose: 6.0 mg/kg/injection, schedule: Q01DX001 (ip), vehicle: distilled water + Tween-80); 158 % of control (endpoint: mean survival time, dose: 36.0 mg/kg/injection, schedule: Q01DX001 (ip), vehicle: distilled water + Tween-80).

On to `COC(=O)c1ccn2c1CCC2`, for which the T/C (endpoint: mean survival time, dose: 25.0 mg/kg/injection, schedule: Q01DX009 (ip), vehicle: Klucel (hydroxypropylcellulose) (HPC)) is 92 % of control; the T/C (endpoint: mean survival time, dose: 50.0 mg/kg/injection, schedule: Q01DX009 (ip), vehicle: Klucel (hydroxypropylcellulose) (HPC)) is 87 % of control; the T/C (endpoint: mean survival time, dose: 100.0 mg/kg/injection, schedule: Q01DX009 (ip), vehicle: Klucel (hydroxypropylcellulose) (HPC)) is 91 % of control; the T/C (endpoint: mean survival time, dose: 200.0 mg/kg/injection, schedule: Q01DX009 (ip), vehicle: Klucel (hydroxypropylcellulose) (HPC)) was 97 % of control; the T/C (endpoint: mean survival time, dose: 400.0 mg/kg/injection, schedule: Q01DX009 (ip), vehicle: Klucel (hydroxypropylcellulose) (HPC)) is 87 % of control.

With `O=C(O)C(=O)O.[Mn]`, the T/C is, setting by setting: under setting [3], 100 % of control; under setting [4], 100 % of control; under setting [5], 96 % of control.

Turning to `CC(=O)OCCN(CCOC(C)=O)CCOC(C)=O`, the T/C (endpoint: mean survival time, dose: 100.0 mg/kg/injection, schedule: Q04DX003 (ip), vehicle: Klucel (hydroxypropylcellulose) (HPC)) was 95 % of control.

Consider `Nc1ccc(-c2ccc(N)cc2O)c(O)c1`, for which the T/C runs as follows: (endpoint: mean survival time, dose: 50.0 mg/kg/injection, schedule: Q01DX009 (ip), vehicle: saline with Tween-80) 98 % of control; under setting [6], 95 % of control.

Consider `O=c1[nH]c(Cc2ccccc2)c(N=Nc2ccccc2)c(=O)[nH]1`, for which the T/C was 90 % of control under setting [7] and 89 % of control under setting [8].

Consider `Nc1nc(N)c2nc(-c3ccccc3Cl)c(-c3ccccc3Cl)nc2n1`, for which the T/C by setting is: (endpoint: mean survival time, dose: 25.0 mg/kg/injection, schedule: Q04DX002 (ip), vehicle: Klucel (hydroxypropylcellulose) (HPC)) 91 % of control; (endpoint: mean survival time, dose: 50.0 mg/kg/injection, schedule: Q04DX002 (ip), vehicle: Klucel (hydroxypropylcellulose) (HPC)) 98 % of control; (endpoint: mean survival time, dose: 100.0 mg/kg/injection, schedule: Q04DX002 (ip), vehicle: Klucel (hydroxypropylcellulose) (HPC)) 95 % of control.

`CCSC(C)CC(=O)O` (stereo not drawn): the T/C reads like this: (endpoint: mean survival time, dose: 100.0 mg/kg/injection, schedule: Q01DX001 (ip), vehicle: saline) 103 % of control; (endpoint: mean survival time, dose: 200.0 mg/kg/injection, schedule: Q01DX001 (ip), vehicle: saline) 103 % of control.

Consider `COc1ccc2c(c1O)C1CCCCC13CCN(C)C3C2` (stereo not drawn), for which the T/C was 96 % of control under setting [9]; 96 % of control under setting [10]; 110 % of control (endpoint: mean survival time, dose: 100.0 mg/kg/injection, schedule: Q01DX001 (ip), vehicle: saline with Tween-80); 93 % of control and 97 % of control under setting [1]; 98 % of control under setting [7]; 100 % of control under setting [8].

Consider `CC1(C)Oc2nc[nH]c(=O)c2C1c1ccccc1` (stereo not drawn), for which the T/C reads like this: under setting [6], 115 % of control; under setting [3], 101 % of control; under setting [11], 107 % of control; under setting [4], 101 % of control; under setting [12], 98 % of control; under setting [5], 98 % of control.

Regarding `COc1cc2cc(c1Cl)N1CC(O)C(C)(O)C(=O)NC(C)C(=O)OC(CC1=O)C1(C)OC1C(C)C1CC(O)(NC(=O)O1)C(OC)/C=C\C=C(\C)C2OC` (stereo not drawn), the T/C was 104 % of control (endpoint: median survival time, dose: 2.0 micrograms/kg/injection, schedule: Q01DX009 (ip), vehicle: distilled water + alcohol); 104 % of control (endpoint: median survival time, dose: 4.0 micrograms/kg/injection, schedule: Q01DX009 (ip), vehicle: distilled water + alcohol); 108 % of control (endpoint: median survival time, dose: 8.0 micrograms/kg/injection, schedule: Q01DX009 (ip), vehicle: distilled water + alcohol); 104 % of control (endpoint: median survival time, dose: 32.0 micrograms/kg/injection, schedule: Q01DX009 (ip), vehicle: distilled water + alcohol).

With `CCOC(=O)/C(C#N)=C1/C=Cc2ccccc2N1`, the T/C was 102 % of control under setting [6]; 109 % of control under setting [3]; 96 % of control under setting [11]; 97 % of control under setting [4]; 96 % of control under setting [12]; 97 % of control under setting [5].

For `CCCCNC(=O)NC(=O)CCl`, the T/C runs as follows: (endpoint: mean survival time, dose: 100.0 mg/kg/injection, schedule: Q04DX003 (ip), vehicle: saline) 97 % of control; (endpoint: mean survival time, dose: 200.0 mg/kg/injection, schedule: Q04DX003 (ip), vehicle: saline) 101 % of control; (endpoint: mean survival time, dose: 400.0 mg/kg/injection, schedule: Q04DX003 (ip), vehicle: saline) 97 % of control.

In the case of `CCOC(=O)C(O)C(C)(Cl)c1ccccc1` (stereo not drawn), the T/C under setting [9] was 98 % of control, the T/C under setting [10] was 102 % of control, the T/C under setting [1] was 95 % of control and the T/C under setting [2] was 95 % of control.

In the case of `NCCc1ccc(O)c(O)c1`, the T/C by setting is: (endpoint: mean survival time, dose: 25.0 mg/kg/injection, schedule: Q01DX009 (ip), vehicle: saline) 97 % of control; (endpoint: mean survival time, dose: 50.0 mg/kg/injection, schedule: Q01DX009 (ip), vehicle: saline) 109 % of control; (endpoint: mean survival time, dose: 100.0 mg/kg/injection, schedule: Q01DX009 (ip), vehicle: saline) 122 % of control and 109 % of control; (endpoint: mean survival time, dose: 200.0 mg/kg/injection, schedule: Q01DX009 (ip), vehicle: saline) 112 % of control; (endpoint: mean survival time, dose: 400.0 mg/kg/injection, schedule: Q01DX009 (ip), vehicle: saline) 119 % of control; (endpoint: median survival time, dose: 0.1 mg/kg/injection, schedule: Q01DX009 (ip), vehicle: saline) 98 % of control and 107 % of control. Moreover, the T/C (endpoint: median survival time, dose: 0.5 mg/kg/injection, schedule: Q01DX009 (ip), vehicle: saline) was 101 % of control and 107 % of control; the T/C (endpoint: median survival time, dose: 1.0 mg/kg/injection, schedule: Q01DX009 (ip), vehicle: saline) was 101 % of control and 107 % of control; the T/C (endpoint: median survival time, dose: 10.0 mg/kg/injection, schedule: Q01DX009 (ip), vehicle: saline) is 97 % of control; the T/C (endpoint: median survival time, dose: 25.0 mg/kg/injection, schedule: Q01DX020 (ip), vehicle: saline) was 101 % of control; the T/C (endpoint: median survival time, dose: 50.0 mg/kg/injection, schedule: Q01DX020 (ip), vehicle: saline) was 109 % of control; the T/C (endpoint: median survival time, dose: 50.0 mg/kg/injection, schedule: Q04DX002 (ip), vehicle: saline with Tween-80) was 111 % of control. For the same molecule, the T/C (endpoint: median survival time, dose: 100.0 mg/kg/injection, schedule: Q01DX009 (ip), vehicle: saline) is 113 % of control and 117 % of control; the T/C (endpoint: median survival time, dose: 100.0 mg/kg/injection, schedule: Q01DX020 (ip), vehicle: saline) was 115 % of control; the T/C (endpoint: median survival time, dose: 100.0 mg/kg/injection, schedule: Q04DX002 (ip), vehicle: saline with Tween-80) is 111 % of control; the T/C (endpoint: median survival time, dose: 150.0 mg/kg/injection, schedule: Q01DX009 (ip), vehicle: saline) was 114 % of control; the T/C (endpoint: median survival time, dose: 200.0 mg/kg/injection, schedule: Q01DX020 (ip), vehicle: saline) is 115 % of control; the T/C (endpoint: median survival time, dose: 200.0 mg/kg/injection, schedule: Q04DX002 (ip), vehicle: saline with Tween-80) was 100 % of control. In addition, the T/C by setting is: (endpoint: median survival time, dose: 400.0 mg/kg/injection, schedule: Q01DX020 (ip), vehicle: saline) 118 % of control; (endpoint: median survival time, dose: 400.0 mg/kg/injection, schedule: Q04DX002 (ip), vehicle: saline with Tween-80) 100 % of control; (endpoint: median survival time, dose: 800.0 mg/kg/injection, schedule: Q01DX020 (ip), vehicle: saline) 118 % of control.

For `CCCCCCCCS`, the T/C is 100 % of control under setting [6], 91 % of control under setting [11] and 92 % of control under setting [12].
